According to patent publication US12275731B2, “Azaindole inhibitors of wild-type and mutant forms of LRRK2” (DANA-FARBER CANCER INSTITUTE, INC., priority 2018, dated 2025):

How the values were obtained:
Test in all cases: KinomeScan profiling
Assay type in all cases: binding
[1] = target: DYRK1B (Homo sapiens, UniProt Q9Y463); details: read-out: % control
Method in brief: (§1)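 First, compounds in DMSO are added at 1 μM to each of 468 kinase assays. Next, RLU signals are normalised between positive control (0%) and DMSO (100%). Finally, kinases under 35% are flagged active.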

[2] = target: T1, MAK (Homo sapiens, UniProt P20794); details: read-out: % control
T1 sequence (P20794 1-623): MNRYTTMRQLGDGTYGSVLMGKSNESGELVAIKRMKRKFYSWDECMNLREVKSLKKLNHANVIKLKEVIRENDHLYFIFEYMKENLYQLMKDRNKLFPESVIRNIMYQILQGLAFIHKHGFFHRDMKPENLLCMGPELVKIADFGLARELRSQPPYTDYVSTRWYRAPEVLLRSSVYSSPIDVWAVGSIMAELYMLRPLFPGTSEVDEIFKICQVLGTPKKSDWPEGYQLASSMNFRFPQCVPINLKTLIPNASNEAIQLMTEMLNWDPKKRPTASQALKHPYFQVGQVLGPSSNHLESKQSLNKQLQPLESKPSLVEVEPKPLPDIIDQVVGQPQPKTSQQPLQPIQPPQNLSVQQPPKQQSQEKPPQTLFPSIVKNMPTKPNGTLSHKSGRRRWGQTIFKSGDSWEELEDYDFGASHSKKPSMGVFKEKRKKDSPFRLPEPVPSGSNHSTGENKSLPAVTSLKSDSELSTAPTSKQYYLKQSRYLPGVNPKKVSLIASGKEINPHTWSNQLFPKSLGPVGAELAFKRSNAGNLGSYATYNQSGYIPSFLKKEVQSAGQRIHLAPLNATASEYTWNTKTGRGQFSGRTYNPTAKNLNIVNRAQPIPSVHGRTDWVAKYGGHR
Method in brief: as §1

[3] = target: T2, EPHB6 (Homo sapiens, UniProt O15197); details: EPHB6, 1 μM; read-out: % control
T2 sequence (O15197 32-1021): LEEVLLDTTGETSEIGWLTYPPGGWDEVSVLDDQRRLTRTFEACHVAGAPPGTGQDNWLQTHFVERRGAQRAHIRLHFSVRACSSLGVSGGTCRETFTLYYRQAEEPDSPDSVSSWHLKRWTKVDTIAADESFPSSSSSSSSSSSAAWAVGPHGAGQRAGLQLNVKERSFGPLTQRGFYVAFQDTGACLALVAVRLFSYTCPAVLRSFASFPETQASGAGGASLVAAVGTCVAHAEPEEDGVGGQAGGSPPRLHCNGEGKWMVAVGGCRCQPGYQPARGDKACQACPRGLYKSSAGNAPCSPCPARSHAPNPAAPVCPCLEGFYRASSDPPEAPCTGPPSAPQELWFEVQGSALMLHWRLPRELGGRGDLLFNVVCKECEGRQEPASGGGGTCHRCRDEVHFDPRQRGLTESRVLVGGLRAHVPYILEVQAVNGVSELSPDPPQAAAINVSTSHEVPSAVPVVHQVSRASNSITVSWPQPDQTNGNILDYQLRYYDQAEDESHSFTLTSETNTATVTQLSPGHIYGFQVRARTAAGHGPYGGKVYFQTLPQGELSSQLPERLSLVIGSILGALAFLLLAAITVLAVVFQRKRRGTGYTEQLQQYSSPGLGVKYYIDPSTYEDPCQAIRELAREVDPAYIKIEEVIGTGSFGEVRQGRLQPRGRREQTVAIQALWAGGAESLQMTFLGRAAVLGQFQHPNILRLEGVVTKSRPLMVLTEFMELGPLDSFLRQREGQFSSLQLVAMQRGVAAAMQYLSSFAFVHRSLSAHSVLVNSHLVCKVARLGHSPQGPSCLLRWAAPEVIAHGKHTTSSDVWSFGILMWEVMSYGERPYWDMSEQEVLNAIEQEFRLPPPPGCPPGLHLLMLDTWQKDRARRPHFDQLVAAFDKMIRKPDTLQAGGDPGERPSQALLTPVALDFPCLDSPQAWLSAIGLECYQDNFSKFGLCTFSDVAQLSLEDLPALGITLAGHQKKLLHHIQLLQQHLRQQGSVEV
Method in brief: as §1

[4] = target: T3, MUSK (Homo sapiens, UniProt O15146); details: read-out: % control
T3 sequence (O15146 24-869): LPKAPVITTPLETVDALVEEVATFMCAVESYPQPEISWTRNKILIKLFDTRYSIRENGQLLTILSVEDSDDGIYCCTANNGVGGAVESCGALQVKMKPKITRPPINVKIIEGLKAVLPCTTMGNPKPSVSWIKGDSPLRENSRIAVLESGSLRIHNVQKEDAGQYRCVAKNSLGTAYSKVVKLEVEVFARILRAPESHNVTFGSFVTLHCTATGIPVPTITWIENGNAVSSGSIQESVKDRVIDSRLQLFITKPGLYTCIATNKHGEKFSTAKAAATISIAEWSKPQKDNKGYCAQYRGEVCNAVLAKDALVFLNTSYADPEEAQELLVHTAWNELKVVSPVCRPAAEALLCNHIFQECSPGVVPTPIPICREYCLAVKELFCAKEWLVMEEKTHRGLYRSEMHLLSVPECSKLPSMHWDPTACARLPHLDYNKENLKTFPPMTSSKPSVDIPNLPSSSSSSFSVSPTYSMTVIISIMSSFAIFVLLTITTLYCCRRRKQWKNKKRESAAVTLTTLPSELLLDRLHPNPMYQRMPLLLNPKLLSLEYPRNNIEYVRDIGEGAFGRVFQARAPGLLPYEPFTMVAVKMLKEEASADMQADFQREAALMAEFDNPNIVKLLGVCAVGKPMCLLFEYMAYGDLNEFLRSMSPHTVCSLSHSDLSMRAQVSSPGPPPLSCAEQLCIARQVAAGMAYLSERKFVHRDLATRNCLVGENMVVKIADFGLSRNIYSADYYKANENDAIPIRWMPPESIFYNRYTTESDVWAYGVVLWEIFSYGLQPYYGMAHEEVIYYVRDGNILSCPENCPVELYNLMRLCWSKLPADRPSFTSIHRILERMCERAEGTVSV
Method in brief: as §1

Sequence of DYRK1B (Q9Y463 whole entry): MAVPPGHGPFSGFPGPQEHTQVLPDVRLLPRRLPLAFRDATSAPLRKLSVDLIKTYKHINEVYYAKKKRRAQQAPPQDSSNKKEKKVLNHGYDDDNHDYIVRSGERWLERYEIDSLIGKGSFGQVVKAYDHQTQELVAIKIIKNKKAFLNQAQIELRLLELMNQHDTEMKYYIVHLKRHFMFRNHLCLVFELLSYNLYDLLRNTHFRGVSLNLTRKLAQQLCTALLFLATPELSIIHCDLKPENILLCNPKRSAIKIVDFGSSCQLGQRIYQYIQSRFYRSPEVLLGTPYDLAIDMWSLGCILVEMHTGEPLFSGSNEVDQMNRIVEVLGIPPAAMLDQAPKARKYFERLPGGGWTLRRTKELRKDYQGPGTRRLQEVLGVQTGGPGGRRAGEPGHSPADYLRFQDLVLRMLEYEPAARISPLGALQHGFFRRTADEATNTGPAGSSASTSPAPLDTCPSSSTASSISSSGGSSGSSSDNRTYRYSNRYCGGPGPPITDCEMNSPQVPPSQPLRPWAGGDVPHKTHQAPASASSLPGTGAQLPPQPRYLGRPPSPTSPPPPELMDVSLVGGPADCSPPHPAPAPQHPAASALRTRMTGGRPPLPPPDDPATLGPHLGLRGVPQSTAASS

Compound | remaining binding at 1 µM [1] [%] | remaining binding at 1 µM [2] [%] | remaining binding at 1 µM [3] [%] | remaining binding at 1 µM [4] [%]
CNc1c(-c2cnn([C@H]3CCN(C(C)=O)C[C@@H]3F)c2)cnc2[nH]cc(Cl)c12 [Compound 77, 1-((3S,4S)-4-(4-(3-chloro-4-(methylamino)-1H-pyrrolo[2,3-b]pyridin-5-yl)-1H-pyrazol-1-yl)-3-fluoropiperidin-1-yl)ethan-1-one] | 100 | 100 | 55 | 100
CNc1c(-c2ccc(C(=O)N3CCC(N4CCOCC4)CC3)cc2)cnc2[nH]cc(Cl)c12 [Compound 96, (4-(3-chloro-4-(methylamino)-1H-pyrrolo[2,3-b]pyridin-5-yl)phenyl)(4-morpholinopiperidin-1-yl)methanone] | 100 | 97 | 99 | 100
O=C(c1ccc(-c2cnc3[nH]cc(Cl)c3c2NC2CCCC2)cc1)N1CCC(N2CCOCC2)CC1 [Compound 101, (4-(3-chloro-4-(cyclopentylamino)-1H-pyrrolo[2,3-b]pyridin-5-yl)phenyl)(4-morpholinopiperidin-1-yl)methanone] | 89 | 87 | 100 | 67
